Test: recombinant UMI read abundance after kanamycin selection (control-corrected) (log10(CPM+1)); higher = more efficient recombination; extreme values may be limits of the assay; sequences stand for … in AGTGCAGAGAAAATCGGCCAGTTTTCTCTGCCTGCAGTCCGCATGCCGTGGGACCCCTTGGGTTCTAACCTGTTGCCTAGATTTATGCAGCGGACTGCCTTTCTCCCAAAGTGATAAACCGG…AGGTTGGTTTCACT; site = the 11-nt donor
Method in brief: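 Sequencing read counts were converted to CPM, averaged over two replicates and scaled by control-derived factors. Results are given as log10(CPM+1). The reads covered the donor–target junction of recombinant UMIs from a pooled Escherichia coli screen of donor and donor-binding-loop pairs for the IS621 bridge recombinase.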
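Note: IS621 bridge recombinase in Escherichia coli cells against a fixed T5 target plasmid.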

Sequence	recombinant UMI read abundance (log10)
CCTAAAGCATGGACCGGTTTTCCCGGTAATCCGTATTTGAC (site CCTAAAGCTGT)	0
CGTTTGGCATGGACCGGTTTTCCCGGTAATCCGTATTTGCA (site CGTTTGGCTAG)	0
CATTGCCCATGGACCGGTTTTCCCGGTAATCCGTATTTGAC (site CATTGCCCTGT)	0.844
ATAAGGCCATGGACCGGTTTTCCCGGTAATCCGTATTTGAC (site GTAAGGCCTGT)	0
TCCTATACATGGACCGGTTTTCCCGGTAATCCGTATTTGGA (site TCCTATACTTC)	0.0113
TCGACACCATGGACCGGTTTTCCCGGTAATCCGTATTTGGC (site TCGACACCTGC)	0
ACTAGTCCATGGACCGGTTTTCCCGGTAATCCGTATTTGGT (site ACTAGTTCTAC)	0.244
CTCTACACATGGACCGGTTTTCCCGGTAATCCGTATTTGCT (site CTCTAGACTAG)	0.0131
GTTCGACCATGGACCGGTTTTCCCGGTAATCCGTATTTGCA (site GTTCGACCTTG)	0
TATAAGCCATGGACCGGTTTTCCCGGTAATCCGTATTTGCC (site TATAAGCCTGG)	0
ATTTCTACATGGACCGGTTTTCCCGGTAATCCGTATTTGTT (site ATTTCTACTAA)	0.0251
TAGAATACATGGACCGGTTTTCCCGGTAATCCGTATTTGCC (site TAGAATACTTG)	0
CCGATATCATGGACCGGTTTTCCCGGTAATCCGTATTTGTC (site CCTATATCTGA)	0
ACTCCAGCATGGACCGGTTTTCCCGGTAATCCGTATTTGCG (site ACTCCAGCTCG)	0.0064
CCCGCGGCATGGACCGGTTTTCCCGGTAATCCGTATTTGGG (site CCCGCGGCTCC)	0.0266
GAGAAAACATGGACCGGTTTTCCCGGTAATCCGTATTTGCT (site GGGAAAACTAG)	0
TGAACACCATGGACCGGTTTTCCCGGTAATCCGTATTTGAC (site TGTACACCTGT)	0
GCCACGTCATGGACCGGTTTTCCCGGTAATCCGTATTTGTA (site GCCACGTCTTA)	2.47
AGTAAATCATGGACCGGTTTTCCCGGTAATCCGTATTTGGG (site GCCGTTCCTGA)	0
TGATCATCATGGACCGGTTTTCCCGGTAATCCGTATTTGCT (site TGATCATCTAG)	0.945
TAATGAGCATGGACCGGTTTTCCCGGTAATCCGTATTTGTG (site TAATGAGCTCA)	1.16
CTATTATCATGGACCGGTTTTCCCGGTAATCCGTATTTGAC (site CTACTATCTGT)	1.96
GCAGTATCATGGACCGGTTTTCCCGGTAATCCGTATTTGCA (site GCAGTATCTTG)	2.68
ACTTCGACATGGACCGGTTTTCCCGGTAATCCGTATTTGCA (site ACTTCGACTTG)	1.84
TGGAAGTCATGGACCGGTTTTCCCGGTAATCCGTATTTGCA (site TGGAAGTCTTG)	3.25

Sequence	recombinant UMI read abundance (log10)
TGCTAGGCATGGACCGGTTTTCCCGGTAATCCGTATTTGAT (site TGCTAGGCTAC)	0.0154
GGGCGCCCATGGACCGGTTTTCCCGGTAATCCGTATTTGGG (site GGGCGCCCTCC)	0.0048
AAAGAGGCATGGACCGGTTTTCCCGGTAATCCGTATTTGCA (site AAAGAGGCTTG)	2.9
TGGACTCCATGGACCGGTTTTCCCGGTAATCCGTATTTGTT (site CGGAATCCTAA)	0
TAGCCTTCATGGACCGGTTTTCCCGGTAATCCGTATTTGGC (site TAGCCTTCTCC)	0.0163
CTCCACACATGGACCGGTTTTCCCGGTAATCCGTATTTGTA (site CACCACACTTA)	1.47
TCCAATTCATGGACCGGTTTTCCCGGTAATCCGTATTTGGC (site TCCAATTCTGT)	0
ACACATCCATGGACCGGTTTTCCCGGTAATCCGTATTTGAG (site ACACATCCTTT)	0.381
CGGAATCCATGGACCGGTTTTCCCGGTAATCCGTATTTGGG (site CGGAATCCTAA)	0
AGGTTACCATGGACCGGTTTTCCCGGTAATCCGTATTTGTG (site AGGTTCCCTCA)	0
GGGTCACCATGGACCGGTTTTCCCGGTAATCCGTATTTGCA (site GGGTCACCTTG)	0
ATAAGGCCATGGACCGGTTTTCCCGGTAATCCGTATTTGAC (site ATTAGGCCTGT)	0
ATCTATTCATGGACCGGTTTTCCCGGTAATCCGTATTTGAC (site ATCTATCCTGT)	1.89
CGAGGACCATGGACCGGTTTTCCCGGTAATCCGTATTTGGG (site CGAGGAGCTCC)	0.00291
GTCACAACATGGACCGGTTTTCCCGGTAATCCGTATTTGAC (site GTCACAACTGT)	1.36
TCTGCGGCATGGACCGGTTTTCCCGGTAATCCGTATTTGCT (site TATGCGGCTAG)	0.0269
TAGCTAGCATGGACCGGTTTTCCCGGTAATCCGTATTTGAA (site TACCTAGCTTT)	0.015
TGAGTTTCATGGACCGGTTTTCCCGGTAATCCGTATTTGAG (site TGAGTTTCTCT)	1.89
AGGGGTTCATGGACCGGTTTTCCCGGTAATCCGTATTTGTC (site AGGGGTTCTGA)	3.19
GCTCACCCATGGACCGGTTTTCCCGGTAATCCGTATTTGCT (site GCTCACCCTAG)	0
CCCCACACATGGACCGGTTTTCCCGGTAATCCGTATTTGGA (site CCCCACACTTA)	0.369
GGGCGACCATGGACCGGTTTTCCCGGTAATCCGTATTTGTT (site GGGCGACCTAA)	0
CCTTCTGCATGGACCGGTTTTCCCGGTAATCCGTATTTGGA (site CCTTCTGCTTC)	0.00377
CGGACATCATGGACCGGTTTTCCCGGTAATCCGTATTTGAT (site CGGACATCTAC)	0.605
CAATGGCCATGGACCGGTTTTCCCGGTAATCCGTATTTGCA (site CAATGGCCTTG)	0.253

Sequence	recombinant UMI read abundance (log10)
GTGCGTGCATGGACCGGTTTTCCCGGTAATCCGTATTTGGT (site GTGCATGCTAC)	0.26
AGGAAGACATGGACCGGTTTTCCCGGTAATCCGTATTTGAA (site AGGAAGACTTT)	2.37
GGTCCGTCATGGACCGGTTTTCCCGGTAATCCGTATTTGTT (site GGTCCGTCTAA)	0.00423
GAGTCGACATGGACCGGTTTTCCCGGTAATCCGTATTTGGG (site TAGTCGACTCC)	0.0071
GTGCATACATGGACCGGTTTTCCCGGTAATCCGTATTTGGT (site GTGCATGCTAC)	0.555
AGGCTTTCATGGACCGGTTTTCCCGGTAATCCGTATTTGAC (site AGTCTTTCTGT)	0
GGTTCGCCATGGACCGGTTTTCCCGGTAATCCGTATTTGCG (site GGTTCGCCTCG)	0
GATCAGCCATGGACCGGTTTTCCCGGTAATCCGTATTTGGT (site GATCAGCCTAC)	0.00497
ACTAGTTCATGGACCGGTTTTCCCGGTAATCCGTATTTGGT (site ACTAGTGCTAC)	0.00523
ATTAAAGCATGGACCGGTTTTCCCGGTAATCCGTATTTGTA (site ATTAAAGCTTA)	2.6
TCATACTCATGGACCGGTTTTCCCGGTAATCCGTATTTGTA (site TCATACTCTTA)	1.51
CGAGGACCATGGACCGGTTTTCCCGGTAATCCGTATTTGGG (site CGAGGAACTCC)	0.0189
ACTAGTGCATGGACCGGTTTTCCCGGTAATCCGTATTTGGT (site ACGAGTGCTAC)	0.586
TCAGCGACATGGACCGGTTTTCCCGGTAATCCGTATTTGCG (site TCAGCGACTCG)	1.37
CTGGAAACATGGACCGGTTTTCCCGGTAATCCGTATTTGTA (site CTGGAAACTTC)	0.294
GTAGGTACATGGACCGGTTTTCCCGGTAATCCGTATTTGAC (site GTAGGTACTCT)	0.304
GGGTCACCATGGACCGGTTTTCCCGGTAATCCGTATTTGCA (site GGGCCACCTTG)	0
CGTGGATCATGGACCGGTTTTCCCGGTAATCCGTATTTGTT (site CGTGGAACTAA)	0.0027
CCGAATACATGGACCGGTTTTCCCGGTAATCCGTATTTGGC (site CCAAATACTGC)	0
CTAGGACCATGGACCGGTTTTCCCGGTAATCCGTATTTGGG (site CAAGGACCTCC)	0.0215
TGTTTGGCATGGACCGGTTTTCCCGGTAATCCGTATTTGTG (site TCTTTGGCTCA)	0.00613
AGTTCAGCATGGACCGGTTTTCCCGGTAATCCGTATTTGGG (site AGATCAGCTCC)	0.0116
CCATCATCATGGACCGGTTTTCCCGGTAATCCGTATTTGCT (site CCATCATCTAG)	0
GGTACGTCATGGACCGGTTTTCCCGGTAATCCGTATTTGTT (site GGTACGTCTCA)	0.0191
TCATACTCATGGACCGGTTTTCCCGGTAATCCGTATTTGTA (site TCATACTCTTC)	0.00471
